Reference: patent US11007169B2, “Cis-gnetin H and trans-gnetin H as therapeutic agents” (MIDDLE TENNESSEE STATE UNIVERSITY, priority 2014, dated 2021)
pIC50: −log10 of the molar value.

What was measured:
[1] = test system: A549 lung cancer xenografts; experiment: Xenograft studies, A549 lung tumors in nude mice; assay type: in vivo; conditions: 2.4 mg/kg
Procedure: 14 male nude mice (6 weeks old) were injected subcutaneously on both flanks with 2×10^6 A549 cells. […] Tumor sizes were measured 3 times per week, and volumes were calculated using the formula [length (mm)]×[width (mm)]^2/2 (Warburton et al., Clin. Cancer Res. 2004; 10(7): 2512-2524).

[2] = test system: TNF-α in LPS-stimulated THP-1 cells; experiment: Cytokine response by ELISA, TNF-α; assay type: cell-based, human; conditions: for pIC50: Homo sapiens, THP-1, pretreated 1 h, LPS 4 h, ELISA; for inhibition of TNF-α: cis 12.5-50 μM, trans 8-30 μM, 20 ng/ml LPS, p<0.05
Procedure: (§1) THP-1 cells were maintained in RPMI 1640 medium supplemented with 10% complement-inactivated FBS and 1% penicillin/streptomycin (complete culture medium) at 37° C. with 5% CO2 supplemented. Cell concentrations were adjusted to desired concentrations for each experiment by centrifugation at 500×g for 5 min and resuspended in complete culture medium with 100 nM of PMA. Cell concentration was adjusted to 5×10^5 cells/ml for all assays and 2.5×10^5 cells/ml were used for NF-κB nuclear translocation assay. Cells were seeded onto 96-, 24-, or 12-well plates and incubated for 48 to 72 h to allow for differentiation. Cells were washed with serum-free RPMI 1640 medium before each experiment to remove the undifferentiated cells.
Differentiated THP-1 cells were pretreated with various concentrations of cis-gnetin H, trans-gnetin H, or 1 μM of dexamethasone for 1 h and stimulated with 20 ng/ml of LPS for 4 h. Dexamethasone is a synthetic glucocorticoid that suppresses cytokine response and was used as a positive control (Abraham et al., 2006, J. Exp. Med., 203:1883-9; Steer et al., J. Biol. Chem., 2000, 275(24):18432-40). Supernatants were collected for human cytokine ELISAs and the manufacturer's protocol was followed to assess the cytokine response. Cells remaining after the supernatant collection were tested for relative viability by Alamar Blue cytotoxicity assay as described earlier.

[3] = test system: mitochondrial cytochrome c in A549 cells; experiment: Analysis of cytochrome c by flow cytometry, A549; assay type: cell-based, human; conditions: 100 μM, 24 hours
Procedure: A549 and BT20 cells were seeded in a 96-well plate (BD Falcon) at a density of 8000 cells/well and treated with 100 μM of cis- or trans-gnetin H for 24 hours. The expression of cytochrome c was evaluated using the FlowCellect Cytochrome c Kit (Millipore) according to the manufacturer's instructions. Cells were stained with either Anti-IgG1-FITC Isotype control or Anti-Cytochrome c-FITC, and data was acquired and analyzed using the Guava Flow Cytometer (Millipore).

[4] = test system: phosphorylated IκB α (Ser32) in LPS-stimulated THP-1 cells; experiment: Western blot, IκB α phosphorylation; assay type: cell-based, human; conditions: concentration-dependent
Procedure: as §1
Differentiated THP-1 cells were pretreated with various concentrations of cis-gnetin H, trans-gnetin H, or 10 μM of Bay 11-7082 for 1 h and stimulated with 1 μg/ml of LPS for 15 min. Cells were lysed with radio-immunoprecipitation assay (RIPA; 1% Triton X-100, 0.5% Sodium deoxycholate, 0.1% sodium dodecyl sulfate, 150 mM sodium chloride, and 50 mM Tris-chloride) lysis buffer that contained protease and phosphatase inhibitor cocktail. Cell lysates were then tested for protein concentration using a BCA protein assay, and diluted with RIPA lysis buffer to normalize protein concentration in all samples. […]

A549 cells = experiment: Cell cycle analysis by flow cytometry, A549; assay type: cell-based, human; conditions: 100 μM, 24 hours
Procedure: A549 and BT20 cells were first synchronized in the G0 phase by culturing cells for 24 hours in serum-free medium and then treated with 100 μM cis- or trans-gnetin H for 24 hours, respectively. Cell cycle analysis was done using propidium iodide (PI) staining as described (An et al., Mol. Cancer Ther. 2007; 6:61-9) and the cells were analyzed on a Guava Flow Cytometer with InCyte software (Millipore).

[5] = test system: HL-60 (human leukemia) cells; conditions: Kang et al. 2003, cited from earlier work
[6] = test system: L1210 (mouse leukemia) cells; conditions: Ha et al. 2009; cited from earlier work
[7] = test system: malignant cells (A549, BT20, MCF-7, U2OS); experiment: IC50 determination, panel of malignant cell lines; assay type: cell-based, human
Procedure: The cancer cell lines used in this study included human lung carcinoma (A549), human breast carcinoma (BT20 and MCF-7) and human osteosarcoma (U2OS), with the normal cell lines human peripheral lung epithelial cells (HPL1A) and human mammary epithelial cells (HMEC) serving as controls. A549, BT20, MCF-7, U2OS and HMEC cells were purchased from American Type Culture Collection (ATCC, USA), and HPL1A cells were obtained from Nagoya University, Japan. A549 and BT20 were grown in RPMI-1640 (Sigma), MCF-7 was grown in Dulbecco's Modified Eagle Medium (DMEM) (Sigma) supplemented with 0.01 mg/ml human recombinant insulin (Sigma), U2OS and HMEC were grown in McCoy's 5A (ATCC), and HPL1A was grown in DMEM/F-12K (Sigma). The mediums were supplemented with 10% Fetal Bovine Serum (FBS) (Gibco), 1% penicillin and streptomycin and incubated in a humidified atmosphere with 5% CO2 at 37° C.
The proliferation inhibition potential of cis- and trans-gnetin H was determined by a fluorescence dye staining method. Cells were seeded in a 96-well tissue culture-treated plate (BD Falcon) at a density of 4000 cells/well, and treated with cis- or trans-gnetin H for 48 hours. AlamarBlue dye (Invitrogen) was used to assess the viability of cells according to the manufacturer's instructions; the fluorescent intensity was read on a SpectraMax M2e microplate reader (Molecular Devices Inc.). […]

Structure (SMILES) | less increase in size of large tumors compared to the untreated control ([1]; large tumors) | food intake or body weight of treated animals ([1]; nude mice) | less increase in size of small tumors compared to the untreated control ([1]; small tumors) | pIC50 [2] | inhibition of TNF-α [2] | cytochrome c release in A549 [3] | IκB α phosphorylation [4] | G0-G1 subpopulation, A549 (A549 cells) | M and G2-S subpopulation, A549 (A549 cells) | increase of the sub-G1 population ([5]; HL-60 cells, 25 μM) | pIC50 ([5]; read-out: IC50, viability of HL-60 cells) | pIC50 [6] | more antiproliferation activity than previously reported ([7]; A549, BT20, MCF-7 and U2OS versus literature) | pIC50 ([7]; Homo sapiens, 48 h, bone, breast and lung cancer cell lines, 48 hours, read-out: IC50 values in malignant cells (range over cell lines))
Oc1ccc(/C=C\c2c3c(cc4c2[C@H](c2cc(O)cc(O)c2)[C@@H](c2ccc(O)cc2)O4)O[C@H](c2ccc(O)cc2)[C@H]3c2cc(O)cc(O)c2)cc1 [cis-gnetin H] | 68% | no apparent alteration on food intake or body weight | 39% | 4.72 | significant inhibition | release of mitochondrial cytochrome c | significantly inhibited | increased significantly | significant decrease | – | – | – | – | –
Oc1ccc(/C=C/c2c3c(cc4c2[C@H](c2cc(O)cc(O)c2)[C@@H](c2ccc(O)cc2)O4)O[C@H](c2ccc(O)cc2)[C@H]3c2cc(O)cc(O)c2)cc1 [trans-gnetin H] | – | – | – | 5.22 | significant inhibition | release of mitochondrial cytochrome c | significantly inhibited | increased significantly | significant decrease | 11% | 4.60 | 4.40 | 2-9 fold | 5.00 to 5.87
